Measurements taken from patent US20120016019A1, “PHARMACEUTICAL COMPOSITION FOR TREATING OR PREVENTING CANCER” (priority 2010, published 2012).
Several values for one entry are separate records, joined by “and”; a condition that tells them apart may be missing. Equal values may be shown once. Read-outs that look alike come from different tables or passages of the source.

Legend:
HT 1299 = conditions: for The cytotoxicity / The viability: 220 nM; for The absorbance / The absorbance, Mean value / The absorbance, group - Blank: HT 1299
Description: (§1) Cancer cell lines HCC 1419, MCF-7, MDA-MB-468, SKBR3, PC3, HT1299, Saos-2, C-6, AsPc, MDA-MB-231, RKO, HeLa and TT, and normal cell lines HME 50 HT, BJ and CCD-1074sk were tested for changes in metabolism (XTT assay) and cell death (cell counts).
(§2) Cells were plated into 48-well Corning CellBind™ plates at densities of 20,000 cells for normal cells and 10,000˜20,000 cells for cancer cells. 24 to 48 h after plating, cells were treated with the composition according to the invention at concentrations of 4.5e-2M. The first time point treated with the composition of the invention is 0 h. At 3 days after the first treatment with the composition of the invention, medium was changed and the composition of the invention at the same concentrations were added to the cultured cells.
(§3) The XTT assay is an accepted analysis technique for viability and cytotoxicity of anticancer drugs or other pharmaceutical compositions. Cells were seeded in a 96-well tissue culture plate at a density of 10,000 cells for normal cells and 5,000 cells for cancer cells. After incubation period, the formazan dye formed was quantitated using an ELISA reader. The optimal wavelength used in experiments was 500 nm, and it was measured at 0 h, 12 h, 24 h, 48 h, 4 d and 7 d, respectively. The obtained values were generated using the software SoftMax Pro 4.8.
(§4) The cell viability was calculated according to the manufacturer's instructions as follows (the term “blank” means XTT in medium only):
(§5) Cellular cytotoxicity was calculated according to the manufacturer's instructions as follows: […]

PC-3 = conditions: for The absorbance, Mean value / The absorbance / The absorbance, group - Blank: PC-3, XTT 500 nm; for The absorbance: single wells
Description: as §1, §2, §3, §4, §5

BJ = conditions: for The viability / The absorbance, group - Blank / The absorbance, Mean value / The absorbance: BJ; for The absorbance, group - Blank: mean minus blank; for The absorbance: single value; for The cytotoxicity: human, 220 nM
Description: as §1, §2, §3, §4, §5

[1] = XTT 500 nm, 2nd week (recovery), 0 h
[2] = XTT 500 nm, 2nd week (recovery), 24 h
[3] = XTT 500 nm, 2nd week (recovery), 48 h
[4] = XTT 500 nm, 2nd week (recovery), 4 d

`CC(=O)O[C@H]1C(=O)[C@@]2(C)[C@H]([C@H](OC(=O)c3ccccc3)[C@]3(O)C[C@H](OC(=O)[C@H](O)[C@@H](NC(=O)c4ccccc4)c4ccccc4)C(C)=C1C3(C)C)[C@]1(OC(C)=O)CO[C@@H]1C[C@@H]2O` [Taxol] showed a The cytotoxicity (HT 1299; 0 h) of 0.0206, a The viability (HT 1299; 0 h) of 0.9794 and a The cytotoxicity (HT 1299; 12 h) of 0.0709. For the same molecule, the The viability (HT 1299; 12 h) was 0.9291, the The cytotoxicity (HT 1299; 24 h) was 0.0409 and the The viability (HT 1299; 24 h) was 0.9591. The The cytotoxicity (HT 1299; 48 h) was 0.0368, the The viability (HT 1299; 48 h) was 0.9632 and the The viability (HT 1299; 4 d) was 0.8406. The The viability (HT 1299; 7 d) was 0.3389, the The absorbance (HT 1299; 1st week (LC50), 0 h) was 2.7643 and 2.716 and 2.6703 and the “The absorbance, Mean value” (HT 1299; 1st week (LC50), 0 h) was 2.7169. For the same molecule, the “The absorbance, group - Blank” value (HT 1299; 1st week (LC50), 0 h) was 2.5063, the The absorbance (HT 1299; 1st week (LC50), 12 h) was 2.8939 and 2.8933 and 2.8787 and the “The absorbance, Mean value” (HT 1299; 1st week (LC50), 12 h) was 2.8886. For the same molecule, the “The absorbance, group - Blank” value (HT 1299; 1st week (LC50), 12 h) was 2.6781, the The absorbance (HT 1299; 1st week (LC50), 24 h) was 2.7759 and 2.8539 and 2.8128 and the “The absorbance, Mean value” (HT 1299; 1st week (LC50), 24 h) was 2.8142. For the same molecule, the “The absorbance, group - Blank” value (HT 1299; 1st week (LC50), 24 h) was 2.6036, the The absorbance (HT 1299; 1st week (LC50), 48 h) was 2.5408 and 2.6225 and 2.6333 and the “The absorbance, Mean value” (HT 1299; 1st week (LC50), 48 h) was 2.5989. For the same molecule, the “The absorbance, group - Blank” value (HT 1299; 1st week (LC50), 48 h) was 2.3883, the The absorbance (HT 1299; 1st week (LC50), 4 d) was 2.817 and 2.6791 and 2.5786 and the “The absorbance, Mean value” (HT 1299; 1st week (LC50), 4 d) was 2.6916. The “The absorbance, group - Blank” value (HT 1299; 1st week (LC50), 4 d) was 2.4810, the The absorbance (HT 1299; 1st week (LC50), 7 d) was 1.504 and the “The absorbance, group - Blank” value (HT 1299; 1st week (LC50), 7 d) was 1.0771. The “The absorbance, Mean value” (HT 1299; [1]) was 2.0676, the “The absorbance, group - Blank” value (HT 1299; [1]) was 1.7954 and the The absorbance (HT 1299; XTT 500 nm, 2nd week (recovery), 0 h, single wells) was 1.9675 and 1.8392 and 2.3962. The “The absorbance, Mean value” (HT 1299; [2]) was 2.6177, the “The absorbance, group - Blank” value (HT 1299; [2]) was 2.3455 and the The absorbance (HT 1299; XTT 500 nm, 2nd week (recovery), 24 h, single wells) was 2.6918 and 2.5521 and 2.6093. The “The absorbance, Mean value” (HT 1299; [3]) was 2.4695, the “The absorbance, group - Blank” value (HT 1299; [3]) was 2.1973 and the “The absorbance, Mean value” (HT 1299; [4]) was 2.3404. For the same molecule, the “The absorbance, group - Blank” value (HT 1299; [4]) was 2.0681, the The absorbance (HT 1299; XTT 500 nm, 2nd week (recovery), 4 d, single wells) was 2.6902 and 1.9256 and 2.4054 and the The cytotoxicity (HT 1299; human, 0 h) was 0.2984. It also gave a The viability (HT 1299; human, 0 h) of 0.7016, a The cytotoxicity (HT 1299; human, 24 h) of 0.1360 and a The viability (HT 1299; human, 24 h) of 0.8640. For the same molecule, the The cytotoxicity (HT 1299; human, 48 h) was 0.1139, the The viability (HT 1299; human, 48 h) was 0.8861 and the The viability (HT 1299; human, 4 d) was 0.7007. For the same molecule, the The cytotoxicity (HT 1299; human, 7 d) was 0.6611, the “The absorbance, Mean value” (PC-3; 1st week (LC50), 0 h) was 0.693 and the The absorbance (PC-3; 1st week (LC50), 0 h) was 0.7147 and 0.7027 and 0.6625. The “The absorbance, Mean value” (PC-3; 1st week (LC50), 12 h) was 0.567, the The absorbance (PC-3; 1st week (LC50), 12 h) was 0.5126 and 0.6101 and 0.5779 and the “The absorbance, Mean value” (PC-3; 1st week (LC50), 24 h) was 0.692. For the same molecule, the “The absorbance, group - Blank” value (PC-3; 1st week (LC50), 24 h) was 0.5326, the The absorbance (PC-3; 1st week (LC50), 24 h) was 0.7192 and 0.6542 and 0.7011 and the “The absorbance, Mean value” (PC-3; 1st week (LC50), 48 h) was 1.747. The “The absorbance, group - Blank” value (PC-3; 1st week (LC50), 48 h) was 1.5885, the The absorbance (PC-3; 1st week (LC50), 48 h) was 1.9128 and 1.6455 and 1.6838 and the “The absorbance, Mean value” (PC-3; 1st week (LC50), 4 d) was 1.266. The “The absorbance, group - Blank” value (PC-3; 1st week (LC50), 4 d) was 1.1072, the The absorbance (PC-3; 1st week (LC50), 4 d) was 1.1723 and 1.5491 and 1.0768 and the “The absorbance, Mean value” (PC-3; 2nd week (recovery), 0 h) was 0.5354. The The absorbance (PC-3; 2nd week (recovery), 0 h) was 0.5937 and 0.5232 and 0.4893, the “The absorbance, Mean value” (PC-3; 2nd week (recovery), 24 h) was 1.6693 and the “The absorbance, group - Blank” value (PC-3; 2nd week (recovery), 24 h) was 1.5104. The The absorbance (PC-3; 2nd week (recovery), 24 h) was 1.3804 and 1.6987 and 1.9288, the “The absorbance, Mean value” (PC-3; 2nd week (recovery), 48 h) was 0.7660 and the “The absorbance, group - Blank” value (PC-3; 2nd week (recovery), 48 h) was 0.6071. For the same molecule, the The absorbance (PC-3; 2nd week (recovery), 48 h) was 0.795 and 0.7948 and 0.7081, the “The absorbance, Mean value” (PC-3; 2nd week (recovery), 4 d) was 1.2875 and the “The absorbance, group - Blank” value (PC-3; 2nd week (recovery), 4 d) was 1.1286. For the same molecule, the The cytotoxicity (PC-3; human, 12 h, 220 nM) was 0.5920, the The viability (PC-3; human, 12 h, 220 nM) was 0.3649 and the The viability (BJ; 1st week (LC50), 0 h) was 0.6817. For the same molecule, the “The absorbance, group - Blank” value (BJ; 1st week (LC50), 0 h) was 0.9194, the “The absorbance, Mean value” (BJ; 1st week (LC50), 0 h) was 1.2407 and the The absorbance (BJ; 1st week (LC50), 0 h) was 1.2557 and 1.2397 and 1.2268. The The viability (BJ; 1st week (LC50), 12 h) was 0.3531, the “The absorbance, group - Blank” value (BJ; 1st week (LC50), 12 h) was 0.1792 and the “The absorbance, Mean value” (BJ; 1st week (LC50), 12 h) was 0.5006. The The absorbance (BJ; 1st week (LC50), 12 h) was 0.504 and 0.4951 and 0.5027, the The viability (BJ; 1st week (LC50), 24 h) was 0.1484 and the “The absorbance, group - Blank” value (BJ; 1st week (LC50), 24 h) was 0.1674. The “The absorbance, Mean value” (BJ; 1st week (LC50), 24 h) was 0.4887, the The absorbance (BJ; 1st week (LC50), 24 h) was 0.492 and 0.4863 and 0.4879 and the The viability (BJ; 1st week (LC50), 48 h) was 0.6457. The “The absorbance, group - Blank” value (BJ; 1st week (LC50), 48 h) was 1.3032, the “The absorbance, Mean value” (BJ; 1st week (LC50), 48 h) was 1.6245 and the The absorbance (BJ; 1st week (LC50), 48 h) was 1.6877 and 1.5017 and 1.6842. For the same molecule, the The viability (BJ; 1st week (LC50), 4 d) was 0.5117, the “The absorbance, group - Blank” value (BJ; 1st week (LC50), 4 d) was 1.1564 and the “The absorbance, Mean value” (BJ; 1st week (LC50), 4 d) was 1.4777. The The absorbance (BJ; 1st week (LC50), 4 d) was 1.4687 and 1.4879 and 1.4766, the The viability (BJ; 1st week (LC50), 7 d) was 0.4809 and the “The absorbance, group - Blank” value (BJ; 1st week (LC50), 7 d) was 1.0576. For the same molecule, the “The absorbance, Mean value” (BJ; 1st week (LC50), 7 d) was 1.3790, the The absorbance (BJ; 1st week (LC50), 7 d) was 1.3256 and 1.3677 and 1.4436 and the The viability (BJ; 2nd week (recovery), 0 h) was 0.8858. The “The absorbance, group - Blank” value (BJ; 2nd week (recovery), 0 h) was 0.8852, the “The absorbance, Mean value” (BJ; 2nd week (recovery), 0 h) was 1.2065 and the The absorbance (BJ; 2nd week (recovery), 0 h) was 1.1468 and 1.2843 and 1.1885. The The viability (BJ; 2nd week (recovery), 24 h) was 2.1460, the “The absorbance, group - Blank” value (BJ; 2nd week (recovery), 24 h) was 1.0893 and the “The absorbance, Mean value” (BJ; 2nd week (recovery), 24 h) was 1.4107. For the same molecule, the The absorbance (BJ; 2nd week (recovery), 24 h) was 1.3211 and 1.5144 and 1.3966, the The viability (BJ; 2nd week (recovery), 48 h) was 0.1254 and the “The absorbance, group - Blank” value (BJ; 2nd week (recovery), 48 h) was 0.1415. For the same molecule, the “The absorbance, Mean value” (BJ; 2nd week (recovery), 48 h) was 0.4629, the The absorbance (BJ; 2nd week (recovery), 48 h) was 0.451 and 0.4672 and 0.4704 and the The viability (BJ; 2nd week (recovery), 4 d) was 0.7693. The “The absorbance, group - Blank” value (BJ; 2nd week (recovery), 4 d) was 1.5524, the “The absorbance, Mean value” (BJ; 2nd week (recovery), 4 d) was 1.8738 and the The absorbance (BJ; 2nd week (recovery), 4 d) was 1.8912 and 1.9201 and 1.8101. It also gave a The cytotoxicity (BJ; 12 h) of 0.6469 and a The cytotoxicity (BJ; 7 d) of 0.5191.
